From patent US8242152B2, “Use of 4-[(4-thiazolyl)phenoxy]alkoxy-benzamidine derivatives for the prophylaxis and treatment of osteoporosis” (Dong Wha Pharmaceutical Co., Ltd., priority 2001, dated 2012)
Where two headings read alike, the source gives them in different places.

Experiments:
[1] = test system: Primary osteoblastic cells; assay: ALP activity in primary osteoblastic cells (Example 5); assay type: cell-based, ICR mice; conditions: 3 days
Description: Primary osteoblastic cells isolated from the calvariae of newborn ICR mice were grown to confluence in α-MEM containing 10% FBS. These cells were plated at a density of 1×10^5/ml in tissue culture dishes. After 24 h, cells were changed with a differentiation medium containing ascorbic acid (50 ug/ml) and β-glycerophosphate (10 mM) with or without the compounds and further cultured for 3 days. Cells were washed twice with PBS and harvested. For the measurement of ALP activity and total protein content, cells were extracted into 0.1% Triton X-100 in PBS containing 1 mM MgCl2 and centrifuged at 1.000×g for 5 minutes. Enzyme activity was determined in supernatants by colorimetric procedure using p-nitrophenyl phosphate (PNP) as a substrate at a wavelength of 405 nm and the protein content was determined by a Bio-Rad protein assay kit. The ALP unit was expressed as nmol PNP/ug protein/min.

[2] = test system: osteoclast differentiation; assay: Osteoclast differentiation, co-culture, TRAP(+)MNCs (Example 5); assay type: cell-based, mice
Description: To investigate the effect of compounds on osteoclast differentiation, co-culture between bone marrow cells (2.5×10^5 cells/cm^2) and calvaria-derived osteoblastic cells (4×10^4 cells/cm^2) was conducted in the presence of 1.25(OH)2D3(10^−8 M) and dexamethasone (10^−7 M) with α-MEM containing 10% FBS (referred as “osteoclastic medium”). Bone marrow cells were isolated from the femora of 6-week-old ddY mice and primary osteoblastic cells were isolated from the calvariae of newborn ICR mice by sequential digestion with 0.2% collagenase. The medium was changed every two days with fresh osteoclastic medium. An index of osteoclast formation was determined by counting TRAP-positive multinucleated osteoclasts (TRAP(+)MNCs). On day 6, the cells were fixed with 10% formaldehyde and stained for TRAP. The number of TRAP(+) MNCs containing more than 6-7 nuclei was counted under a microscope (ZEISS Axiovert 25, Switzerland). The results are shown as the relative inhibitory activity (% inhibition) compared to the control group.

[3] = test system: osteoclast fusion; assay: Osteoclast fusion assay with purified prefusion osteoclasts (Example 5); assay type: cell-based, mice
Description: The effect of the compounds on the fusion of osteoclasts was examined using purified prefusion osteoclasts (pOC, mononuclear and binuclear osteoclasts). Co-cultures of bone marrow cells (2×10^7 cells/dish) and newborn mice calvariae (1×10^6 cells/dish) were maintained in 100-mm-diameter dishes for 4 days with osteoclast differontiarion factor. Cultures were washed twice with PBS and treated with 0.1% collagenase/dispase at 37° C. for 20 minutes. Released cells, mostly osteoblasts, were removed with a pipet and the plates were washed three times with PBS. The remaining cells were incubated with 30 uM echistatin in α-MEM containing 1% BSA for 20 min at 37° C. These cells were collected, pelleted, and washed once with α-MEM containing 10% FBS. The cells released by this treatment were the subject of the fusion assay. More than 90% of the cells in the pOCs preparation used in the present study were positive for TRAP.
pOCs (15,000 cells/well) were plated on 96 well culture plates with or without various compounds. After culture for 18 hours, the cells were fixed and stained for TRAP.

[4] = test system: osteoclast fusion; assay: Fusion assay of prefusion osteoclasts (Example 2); assay type: cell-based, mice; conditions: 24 hrs
Excerpt: This assay is designed to evaluate the influences of each test substance in terms of osteoclast fusion during the differentiation process in which immature prefusion osteoclasts (pOC; osteoclast structure with one more nuclei) were transformed into mature multinucleated osteoclast (OCL) via cell to cell fusion (Gregg Wesolowski et al. Experimental Cell Research 219,679-686, 1995).
The prefusion osteoclast can be obtained via co-culture of both bone marrow cells and osteoblast, as prepared from Example 1. The mixture of both osteoblast (about 5×10^5 cells/plate) and bone marrow cells (about 1×10^7 cells/plate) were co-cultured in a 100 mm culture dish. Some differentiation factors, such as dexamethasone (10^−6M) and vitamin D3 (10^−9M), were added to the medium from the first day of culture. The medium was changed with a fresh medium containing differentiation factors every 2 days.
Since a great number of the prefusion osteoclasts having one or more nuclei in fusion process were formed during 4-day co-culture, the cells were separated and co-cultivation after 4 days. The medium was removed from the cells and with the addition of 0.2% collagenase solution (4 mL), the cells were incubated at 37° C. for 20 mins to separate the attachment cells. Since the majority of separated cells were osteoblasts, all osteoblasts were washed with PBS solution two or three times for their complete removal.
After the remaining prefusion osteoclasts were separated via reaction for 20 mins with the addition of echistatin containing 10% BSA, the cells were harvested by centrifuge.
The test substances diluted at each concentration were diluted at the desired concentration in α-MEM medium (addition of 10% FBS) to load them into a 96-well microplate in a dose of 100 uL per well. The osteoclastic monocytes, so separated from the preceding No. 1, were plated on a 96-well microplate in a dose of 5×10^3 cell/100 uL per well and cultured at 37° C. for 24 hrs, thus successfully resulting in the osteoclast fusion. In the case of specimen-free and positive controls, experiments were performed in the same manner as above.
The medium was removed from the cells and then the cells were washed once with PBS and fixed to a PBS solution containing 10% formalin for about 5 mins. The cells were again fixed to both ethanol and acetone (1/1) in a mixing solution for about 5 mins and dried off. The cells were further treated by TRAP staining solution for 15 mins and washed with water to observe the cells under the microscope. The TRAP-positive osteoclast counts, which were differentiated from monocyte to multinucleated cells (osteoclast having more than 10 nuclei) via fusion process, were measured.

[5] = test system: osteoclast activity (resorption pits); assay: Bone resorption pit formation assay on dentine slice (Example 5); assay type: cell-based, mice
Description: Method for evaluating the effects of the compounds on osteoclast activity: Multinucleated osteoclasts were developed on collagen gel plates by co-culture system as described. On day 6-8 of the co-culture, multinucleated OCLs were detached from plates by 0.2% collagenase treatment (“crude OCLs”). Crude OCLs suspended in α-MEM containing 10% FBS were placed on a dentine slice (4 mm diameter) in a 96-well culture plate. […] At the end of the incubation, cells were removed by 1 M NH4OH treatment and resorption pits formed (in the slices stained with Mayer's hematoxylin). Resorption pits were enumerated with an image analyzer and compared to the control group.

[6] = molecular target: LTB4 receptor (Homo sapiens, UniProt Q15722); design: endogenous in cells; host or cells: human neutrophils (PMN) purified from fresh blood; conditions: cited from earlier work
Sequence of LTB4 receptor (Q15722 whole entry): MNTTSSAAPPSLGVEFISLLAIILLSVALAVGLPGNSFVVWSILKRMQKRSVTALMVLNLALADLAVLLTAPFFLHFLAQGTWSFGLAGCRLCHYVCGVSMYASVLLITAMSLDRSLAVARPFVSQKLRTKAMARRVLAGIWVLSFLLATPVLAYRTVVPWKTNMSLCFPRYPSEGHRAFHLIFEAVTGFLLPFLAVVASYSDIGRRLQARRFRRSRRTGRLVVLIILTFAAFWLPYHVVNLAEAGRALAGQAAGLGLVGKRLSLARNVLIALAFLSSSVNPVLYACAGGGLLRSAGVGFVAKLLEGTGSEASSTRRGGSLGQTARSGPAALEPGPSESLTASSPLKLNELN

With “4-[5-[4-(aminoiminomethyl)phenoxy]pentoxy]-3-methoxy-N,N-bis(1-methylethyl)benzamide maleic acid [CGS-25019C]” the “ALP activity (% of control)” value ([1]; 0.01 uM) was 121.3 % of control, the “ALP activity (Unit)” value ([1]; 0.01 uM) was 20.6 nmol PNP/ug protein/min and the “ALP activity (% of control)” value ([1]; 0.1 uM) was 115.3 % of control. The “ALP activity (Unit)” value ([1]; 0.1 uM) was 19.7 nmol PNP/ug protein/min, the “% inhibitory action” value ([2]; 0.01 uM, day 6) was 11.2% and the “% inhibitory action” value ([2]; 0.1 uM, day 6) was 29.5%. For the same compound, the “% inhibitory action” value ([2]; 1 uM, day 6) was 36.9%, the “Inhibitory action (%)” value ([3]; 0.08 uM, 18 hours) was 10.14% and the “Inhibitory action (%)” value ([3]; 0.4 uM, 18 hours) was 13.04%. For the same compound, the “Inhibitory action (%)” value ([3]; 2 uM, 18 hours) was 13.77%, the “Inhibitory action (%)” value ([3]; 10 uM, 18 hours) was 12.32% and the “Inhibitory action (%)” value ([4]; 0.08 uM) was 10.14%. The “Inhibitory action (%)” value ([4]; 0.4 uM) was 13.04%, the “Inhibitory action (%)” value ([4]; 2 uM) was 13.77% and the “Inhibitory action (%)” value ([4]; 10 uM) was 12.32%. The “Inhibitory activity (%)” value ([5]; 0.01 uM, dentine slice, 24 h) was 0(−24) %, the “Inhibitory activity (%)” value ([5]; 0.1 uM, dentine slice, 24 h) was 10.4% and the “Inhibitory activity (%)” value ([5]; 1 uM, dentine slice, 24 h) was 24.8%.
With `Cc1nc(-c2ccc(OCCCCCOc3ccc(C(=N)N)cc3)cc2)c(C(C)C)s1` [DW1352, 4-{5-[4-(5-isopropyl-2-methyl-1,3-thiazol-4-yl)phenoxy]pentoxy}-benzamidine] the “ALP activity (% of control)” value ([1]; 0.01 uM) was 113.0 % of control, the “ALP activity (Unit)” value ([1]; 0.01 uM) was 19.2 nmol PNP/ug protein/min and the “ALP activity (% of control)” value ([1]; 0.1 uM) was 111.7 % of control. For the same compound, the “ALP activity (Unit)” value ([1]; 0.1 uM) was 19.1 nmol PNP/ug protein/min, the “Inhibition (%) of LTB4 receptor binding” value ([6]; 100 nM) was 88% and the “Inhibition (%) of LTB4 receptor binding” value ([6]; 1 uM) was 100%. It also gave an inhibition at 0.01 µM ([2]; Mus musculus, Osteoclast, 144 h, 0.01 uM, day 6, read-out: % inhibitory action) of 27.1%, an inhibition at 0.1 µM ([2]; Mus musculus, Osteoclast, 144 h, 0.1 uM, day 6, read-out: % inhibitory action) of 41.3% and an inhibition at 1 µM ([2]; Mus musculus, Osteoclast, 144 h, 1 uM, day 6, read-out: % inhibitory action) of 80.9%. For the same compound, the “times stronger inhibition of osteoclast differentiation than DW1351” value ([2]; versus DW1351, Table 8) was “about 1.35 times”, the inhibition at 0.08 µM ([3]; Mus musculus, Osteoclast, 0.08 uM, 18 hours, read-out: Inhibitory action (%)) was 5.13% and the inhibition at 0.4 µM ([3]; Mus musculus, Osteoclast, 0.4 uM, 18 hours, read-out: Inhibitory action (%)) was 24.7%. For the same compound, the inhibition at 2 µM ([3]; Mus musculus, Osteoclast, 2 uM, 18 hours, read-out: Inhibitory action (%)) was 87.2%, the inhibition at 10 µM ([3]; Mus musculus, Osteoclast, 10 uM, 18 hours, read-out: Inhibitory action (%)) was 99% and the IC50 ([3]; Mus musculus, Osteoclast, 18 hours) was 740 nM. For the same compound, the “times more inhibition of osteoclast fusion than DW1351” value ([3]; versus DW1351) was 2.3 times, the inhibition at 0.08 µM ([4]; Mus musculus, Osteoclast, 0.08 uM, read-out: Inhibitory action (%)) was 5.13% and the inhibition at 0.4 µM ([4]; Mus musculus, Osteoclast, 0.4 uM, read-out: Inhibitory action (%)) was 24.7%. The inhibition at 2 µM ([4]; Mus musculus, Osteoclast, 2 uM, read-out: Inhibitory action (%)) was 87.2%, the inhibition at 10 µM ([4]; Mus musculus, Osteoclast, 10 uM, read-out: Inhibitory action (%)) was 99% and the IC50 ([4]; Mus musculus, Osteoclast) was 740 nM. The inhibition at 0.01 µM ([5]; Mus musculus, Osteoclast, 0.01 uM, dentine slice, 24 h, read-out: Inhibitory activity (%)) was 21.7%, the inhibition at 0.1 µM ([5]; Mus musculus, Osteoclast, 0.1 uM, dentine slice, 24 h, read-out: Inhibitory activity (%)) was 36% and the inhibition at 1 µM ([5]; Mus musculus, Osteoclast, 1 uM, dentine slice, 24 h, read-out: Inhibitory activity (%)) was 64.1%. The “times more inhibition of osteoclast activity than DW1351” value ([5]; versus DW1351, Table 10) was “about 1.35 times”.
